The values that follow come from publication PMC8707586, “New Inhibitors of Laccase and Tyrosinase by Examination of Cross-Inhibition between Copper-Containing Enzymes” (International Journal of Molecular Sciences, 2021).

In experiment [1] the test system is laccases. Briefly: Laccase activity assay, statements on both laccases together. It counts as biochemical, T. versicolor and A. oryzae. As to conditions: 50 μM. The protocol: (§1) Enzyme activity with inhibitors—All chemical reagents were purchased from either Tokyo Chemical Industry (Tokyo, Japan), ChemBridge (San Diego, CA, USA), or Sigma-Aldrich (St. Louis, MO, USA). The reaction mixture for the tyrosinase assay comprised 20 nM tyrosinase and 500 µM L-DOPA in phosphate-buffered saline. The solution for the ceruloplasmin activity assay comprised 20 nM ceruloplasmin and 500 µM N,N-dimethyl-p-phenylenediamine (DMPD) in 100 mM of sodium acetate buffer at a pH of 5.5. The DBH activity assay was conducted in a reaction mixture containing 10 nM DBH, 500 µM DMPD, and 500 µM tyramine. The solution for the laccase activity assay comprised either 150 nM T. versicolor laccase or 350 nM A. oryzae laccase and 500 µM L-DOPA in 100 mM sodium phosphate buffer with a pH of 5.5. All the solutions included 0.01% Triton X-100 and 5% DMSO in the absence or presence of the inhibitor. After the addition of inhibitors, the solutions were incubated for 15 min at 30 °C. The absorbances of tyrosinase, laccase, ceruloplasmin, and DBH were measured at 475, 475, 550, and 515 nm, respectively, after the addition of substrate to the mixture solution, in a time-dependent manner. […] The Cheng–Prusoff equation with Km was employed to convert the IC50 value into the inhibitory constant, Ki, for each inhibitor [46].

For experiment [2], the system named is laccases. Briefly: Enzyme inhibitory kinetics, laccases from both sources together. The note with it: nonlinear fitting of enzyme kinetics. It counts as biochemical, T. versicolor and A. oryzae. On the procedure:
(§2) Enzyme inhibitory kinetics—The velocities during the generation of the product for each enzyme were measured by varying the substrate and inhibitor concentrations. Simultaneous and nonlinear fitting of all profiles in an inhibitor minimized the Χ^2 value of the differences of theoretical and experimental values in the Michaelis–Menten equation, expressed with the competitive, uncompetitive, noncompetitive, and mixed models. […] The reduced Χ^2 values between the models were compared based on F-statistic to select the most appropriate model. All fittings and statistical analyses were conducted using MATLAB from MathWorks (Natick, MA, USA).

The target of experiment [3] is A. oryzae laccase. Briefly: Enzyme inhibitory kinetics, A. oryzae laccase. As to conditions: read-out: ** Ki, simulated inhibitory constant by nonlinear fitting assuming competitive inhibition. The format is biochemical, Aspergillus oryzae. The protocol: as §2
The target of experiment [4] is A. oryzae laccase. Briefly: Laccase activity assay (L-DOPA substrate), A. oryzae. The format is biochemical, Aspergillus oryzae. As to conditions: Ki from IC50 by Cheng–Prusoff, 0.01% Triton X-100. On the procedure:
as §1

In experiment [5] the target is T1, dopamine-β-hydroxylase (DBH) (Homo sapiens, UniProt P09172).
T1 construct: purchased
T1 sequence (P09172 1-617): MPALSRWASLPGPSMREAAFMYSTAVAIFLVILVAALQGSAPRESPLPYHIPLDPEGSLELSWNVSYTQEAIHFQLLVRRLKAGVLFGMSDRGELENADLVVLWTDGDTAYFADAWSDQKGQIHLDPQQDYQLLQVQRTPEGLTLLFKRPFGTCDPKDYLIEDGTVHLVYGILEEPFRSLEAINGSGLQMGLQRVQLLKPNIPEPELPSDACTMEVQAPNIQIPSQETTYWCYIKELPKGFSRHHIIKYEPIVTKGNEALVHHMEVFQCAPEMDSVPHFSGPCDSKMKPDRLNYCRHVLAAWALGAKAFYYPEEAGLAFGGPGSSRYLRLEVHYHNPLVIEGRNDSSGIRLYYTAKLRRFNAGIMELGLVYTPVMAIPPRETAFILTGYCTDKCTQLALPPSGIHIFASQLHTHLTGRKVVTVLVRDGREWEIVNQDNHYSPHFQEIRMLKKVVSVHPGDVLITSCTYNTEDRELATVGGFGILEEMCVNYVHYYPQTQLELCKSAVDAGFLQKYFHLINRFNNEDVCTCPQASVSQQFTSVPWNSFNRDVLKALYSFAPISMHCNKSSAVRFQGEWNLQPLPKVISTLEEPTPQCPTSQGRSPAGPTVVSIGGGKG
Briefly: DBH activity assay (DMPD, tyramine). The format is biochemical. As to conditions: for Ki: Ki from IC50 by Cheng–Prusoff. On the procedure:
as §1

The target of another experiment is T2, ceruloplasmin (Homo sapiens, UniProt P00450).
T2 construct: purchased
T2 sequence (P00450 20-1065): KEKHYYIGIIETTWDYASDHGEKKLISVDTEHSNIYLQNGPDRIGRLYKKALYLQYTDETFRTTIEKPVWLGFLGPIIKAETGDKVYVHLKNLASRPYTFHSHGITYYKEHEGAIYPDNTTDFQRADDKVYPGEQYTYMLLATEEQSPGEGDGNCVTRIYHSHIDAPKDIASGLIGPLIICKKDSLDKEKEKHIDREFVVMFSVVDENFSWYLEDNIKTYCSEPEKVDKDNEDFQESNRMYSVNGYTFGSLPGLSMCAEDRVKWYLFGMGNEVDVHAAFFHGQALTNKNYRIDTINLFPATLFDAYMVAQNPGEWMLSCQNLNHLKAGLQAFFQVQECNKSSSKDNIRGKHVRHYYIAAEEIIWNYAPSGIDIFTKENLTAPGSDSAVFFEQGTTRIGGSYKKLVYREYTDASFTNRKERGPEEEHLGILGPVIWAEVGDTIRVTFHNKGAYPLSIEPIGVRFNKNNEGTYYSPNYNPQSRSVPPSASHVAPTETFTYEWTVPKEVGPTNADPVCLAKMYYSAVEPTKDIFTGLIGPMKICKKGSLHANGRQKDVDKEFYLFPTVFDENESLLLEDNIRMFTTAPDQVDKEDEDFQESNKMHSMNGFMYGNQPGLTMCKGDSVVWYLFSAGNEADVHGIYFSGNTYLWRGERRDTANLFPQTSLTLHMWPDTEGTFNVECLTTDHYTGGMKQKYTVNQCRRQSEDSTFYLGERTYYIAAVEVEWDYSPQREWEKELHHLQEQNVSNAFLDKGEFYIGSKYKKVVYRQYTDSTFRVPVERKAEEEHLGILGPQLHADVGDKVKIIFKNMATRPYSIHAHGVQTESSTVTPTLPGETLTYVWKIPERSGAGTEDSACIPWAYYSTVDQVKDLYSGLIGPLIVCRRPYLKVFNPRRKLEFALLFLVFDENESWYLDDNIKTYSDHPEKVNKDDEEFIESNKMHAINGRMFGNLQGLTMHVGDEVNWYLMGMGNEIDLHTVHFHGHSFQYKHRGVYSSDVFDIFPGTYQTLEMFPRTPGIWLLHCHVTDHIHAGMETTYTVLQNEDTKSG
Briefly: Ceruloplasmin activity assay (DMPD substrate). As to conditions: Ki from IC50 by Cheng–Prusoff. It counts as biochemical. The protocol: as §1

The next experiment deals with T3, T. versicolor laccase (Trametes versicolor, UniProt Q12718).
T3 sequence (Q12718 21-519): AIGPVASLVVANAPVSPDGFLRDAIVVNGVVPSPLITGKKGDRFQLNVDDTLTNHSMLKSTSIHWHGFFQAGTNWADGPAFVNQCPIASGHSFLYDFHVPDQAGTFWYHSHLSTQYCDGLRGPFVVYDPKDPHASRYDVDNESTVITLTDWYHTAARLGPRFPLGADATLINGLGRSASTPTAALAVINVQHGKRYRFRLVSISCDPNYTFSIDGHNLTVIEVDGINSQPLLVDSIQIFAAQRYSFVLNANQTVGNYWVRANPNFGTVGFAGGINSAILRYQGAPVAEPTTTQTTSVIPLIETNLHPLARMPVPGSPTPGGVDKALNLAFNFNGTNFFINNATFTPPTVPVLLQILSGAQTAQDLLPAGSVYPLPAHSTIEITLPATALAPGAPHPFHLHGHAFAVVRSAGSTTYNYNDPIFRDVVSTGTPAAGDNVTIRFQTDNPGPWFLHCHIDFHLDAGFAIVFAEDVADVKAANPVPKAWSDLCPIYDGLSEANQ
Briefly: Laccase activity assay (L-DOPA substrate), T. versicolor. It counts as biochemical. As to conditions: Ki from IC50 by Cheng–Prusoff, 0.01% Triton X-100. The protocol: as §1

The target in experiment [6] is T4, mushroom tyrosinase (Agaricus bisporus, UniProt C7FF04). More on the design: method as in PMID 24074025. As to conditions: cited from earlier work.
T4 sequence (C7FF04 1-392): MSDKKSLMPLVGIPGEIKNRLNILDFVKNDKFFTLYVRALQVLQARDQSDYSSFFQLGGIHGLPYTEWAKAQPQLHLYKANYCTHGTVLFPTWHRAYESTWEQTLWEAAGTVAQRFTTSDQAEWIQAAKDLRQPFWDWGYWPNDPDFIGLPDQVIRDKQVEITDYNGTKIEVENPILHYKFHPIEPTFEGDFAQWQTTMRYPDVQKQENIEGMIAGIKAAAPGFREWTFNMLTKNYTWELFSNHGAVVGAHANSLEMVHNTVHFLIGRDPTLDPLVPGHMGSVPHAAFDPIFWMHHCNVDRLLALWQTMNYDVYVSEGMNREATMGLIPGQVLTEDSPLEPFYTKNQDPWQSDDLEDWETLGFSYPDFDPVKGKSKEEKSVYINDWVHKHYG
The target of experiment [7] is T4, mushroom tyrosinase. Briefly: Tyrosinase enzyme activity assay (L-DOPA substrate). It counts as biochemical. The protocol:
as §1

Bounds are passed on as bounds.

In general, Ki refers to a dissociation constant, usually derived from enzyme kinetics or from competition with a known ligand. On to `O=C(O)C(S)C(S)C(=O)O` (stereo not drawn) [compound 19, dimercaptosuccinate], for which the “inhibitory activities against laccases” value with laccases [1] is on record as “substantial inhibitory activities”. Further, the values for the Mechanism of inhibition entry in the experiment on laccases [2] and with laccases [2] (listed as dimercaptosuccinate) were “Competitive” and “competitive mode”, respectively. The Ki on A. oryzae laccase [3] is 13.1 µM; on A. oryzae laccase [4], 37.3 ± 5.6 µM; on A. oryzae laccase [4] (listed as dimercaptosuccinate) it was 37 µM.

On to `Cn1cc[nH]c1=S` [compound 16, methimazole], for which, in [5] (50 µM), the “inhibition of DBH at single concentration” value is “neither methimazole nor other thione-containing test molecules significantly inhibited DBH”.

For `Nc1nc2nc[nH]c2c(=S)[nH]1` [compound 2, thioguanine], the “inhibitory activities against laccases” value in the experiment with laccases [1] is “substantial inhibitory activities”. Moreover, the values for the Mechanism of inhibition result with laccases [2] and in the experiment with laccases [2] (listed as thioguanine) were “Competitive” and “competitive mode”, respectively. The Ki is 26.2 µM on A. oryzae laccase [3], 21.2 ± 1.7 µM at A. oryzae laccase [4] and 21 µM on A. oryzae laccase [4] (listed as thioguanine).

In the case of `O=c1cccccc1O` [compound 26, tropolone], in experiment [5], the “inhibition of DBH activity” value is on record as “significantly decreased DBH activity” and the Ki was found to be 9.3 ± 5.5 µM. Further, the Ki at A. oryzae laccase [4] was above 1000 µM.

Take `O=c1cc(CO)occ1O` [compound 12, kojic acid]: the Ki at A. oryzae laccase [4] is above 1000 µM.

Take `[NH4+].[NH4+].[SH-].[SH-].[S]=[Mo]=[S]` [compound 28, ammonium tetrathiomolybdate (ATMD)]: the Ki at ceruloplasmin is 10.9 ± 1.4 µM; in experiment [5], 23.7 ± 2.7 µM; on T. versicolor laccase it was 12.3 ± 1.3 µM; at T. versicolor laccase (listed as AMTD) it was 12 µM; on A. oryzae laccase [4], 10.5 ± 2.5 µM; on A. oryzae laccase [4] (listed as AMTD) it was 10 µM. Further, the “inhibition of DBH activity” value in experiment [5] is “significantly decreased DBH activity”.

Turning to `S=c1[nH]cnc2nc[nH]c12` [compound 1, mercaptopurine], in the experiment on laccases [1], the “inhibitory activities against laccases” value is “substantial inhibitory activities”. The Mechanism of inhibition entry in the experiment on laccases [2] is “Competitive”; in the experiment with laccases [2] (listed as mercaptopurine), “competitive mode”. The Ki on A. oryzae laccase [3] is 17.2 µM; on A. oryzae laccase [4], 15.1 ± 4.6 µM; at A. oryzae laccase [4] (listed as mercaptopurine) it was 15 µM.

As to `NC(=S)Nc1ccccc1` [compound 24, phenylthiourea (PTU)], the Ki on A. oryzae laccase [4] was above 1000 µM.

In the case of `[N-]=[N+]=[N-].[Na+]` [compound 27, sodium azide], the Ki was 1.6 ± 0.3 µM on ceruloplasmin; 70.6 ± 11.6 µM in experiment [5]; 4.2 ± 1.3 µM on T. versicolor laccase; 4 µM at T. versicolor laccase (listed as sodium azide); 3.1 ± 1.7 µM at A. oryzae laccase [4]; 3 µM on A. oryzae laccase [4] (listed as sodium azide). The “inhibition of DBH activity” value in experiment [5] is “moderate inhibition”.

For the compound `OCC(S)CS` (stereo not drawn) [compound 18, dimercaptopropanol], in [5], the “inhibition of DBH activity” value is “moderate inhibition”. The Ki in [5] was 57.9 ± 7.6 µM; at A. oryzae laccase [3] it was 18 µM; on A. oryzae laccase [4], 18.6 ± 3.3 µM; at A. oryzae laccase [4] (listed as dimercaptopropanol), 18 µM. Besides, the “inhibitory activities against laccases” value with laccases [1] is “substantial inhibitory activities”. Moreover, the Mechanism of inhibition entry with laccases [2] is “Competitive”; in the experiment with laccases [2] (listed as dimercaptopropanol) it was “competitive mode”.

Turning to `C[C@H](CS)C(=O)N1CCC[C@H]1C(=O)O` [compound 11, captopril], the “inhibition of tyrosinase (words, literature)” value at mushroom tyrosinase [6] is “slightly inhibited”. For the same compound, at mushroom tyrosinase [7], the “inhibition of tyrosinase activity” value is on record as “inhibits tyrosinase activity”. The “inhibitory activities against laccases” value in the experiment with laccases [1] is recorded as “substantial inhibitory activities”. In addition, the Mechanism of inhibition entry with laccases [2] is “Competitive”; in the experiment with laccases [2] (listed as captopril) it was “competitive mode”. The Ki on A. oryzae laccase [3] was 32.4 µM; at A. oryzae laccase [4], 26.3 ± 2.4 µM; on A. oryzae laccase [4] (listed as captopril), 26 µM.
